Data on 5 compounds can be found in patent publication US8748177B2, “Compositions for proliferation of cells and related methods” (The Hospital for Sick Children, priority 2008, dated 2014).

“Also recorded” adds a separate entry of the source. Where a name gives a salt, the structure may show the parent alone.

Experiment [1] has as its system human SKPs. The experiment can be described thus: Dose-response curves for proliferation of human SKPs in presence of EGF and FGF2. Format: cell-based. Particulars: for proliferation of human SKPs: 100 nM, compared to cells grown in the absence of the agent. As for the experimental part: The proliferative effects of MG 624 on SKPs and neuroblastoma tumor initiating cells have also been studied in detail. Dose response curves for proliferation of human SKPs and neuroblastoma tumor initiating cells in response to MG 624 were generated in the presence of EGF and FGF2. At 200 nM MG 624, SKP cell proliferation is enhanced (FIG. 5).
To characterize enhancement of proliferation brought about by the agents identified above, dose-response curves for MG624, GSK3β, pramoxine, kaempferol, and alprostadil in presence of EGF and FGF2 were generated (FIGS. 6A-6E).

For experiment [2], the system named is human SKPs. The experiment can be described thus: In vitro sphere assay, human SKPs from foreskin. In kind it is cell-based. Particulars: treated for seven days, Hoechst stain, compared to vehicle control. As for the experimental part:
FIG. 7 is a schematic illustration of the in vitro sphere assay. SKPs were isolated from mouse back, whisker and human foreskin and allowed to grow in spheres. After 2-3 passages, spheres were dissociated and 3000 cells were plated in each well of a 96-well plate. Cells were then treated in triplicate with different concentrations of drugs or only with vehicle DMSO. Drugs were applied again on day 3 and the number of spheres was analyzed on day 7.
SKPs were isolated from mouse back, whisker, and human foreskin and allowed to grow in spheres. After 2-3 passages, spheres were dissociated and 3000 cells were plated in each well of a 96 well plate. Cells were then treated in triplicate with different concentrations of drugs or with vehicle (DMSO) only. Drugs were applied again on day 3 and number of spheres was analyzed on day 7.
Sphere size is […] with, and is thus a measure of, cell proliferation. SKPs were isolated from human foreskin and allowed to grow in spheres. After 2-3 passages, spheres were dissociated and 3000 cells were plated in each well of a 96 well plate. Cells were then treated in triplicate with (a) 100 nM of a single drug, (b) a combination of drugs in which each drug is present at a concentration of 100 nM, or (c) vehicle (DMSO). Drugs were applied again on day 3. To assess how well cells proliferate within the sphere, the size of spheres was analyzed on day 7. […]

The next experiment has as its system Sox2-EGFP mice. The experiment can be described thus: Single agent topical application, hair length in shaved Sox2-EGFP mice. In kind it is in vivo, mouse. Particulars: for hair length distribution histogram relative to control group: day 23, classes of 200 μm; for hair length: topical daily, days 16, 19 and 23, compared to control mice. As for the experimental part:
Sox2-EGFP mice, 7-8 weeks old, were shaved on the dorsal back to synchronize the hair cycle, and kaempferol (Kae) or alprostadil (Alp) was topically applied daily. Control mice were treated with vehicle only. At days 16, 19, and 23, about 30-40 hairs were plucked from each mouse, and their length was measured. Three or four mice were used in each group. […] Hair length promoted by the compounds on day 23 is shown in distribution histograms relative to the control group. Hair length was binned in classes of 200 μm, and each class was expressed as a percentage of total hair population.

The next experiment relates to C57BL/6 mice. The experiment can be described thus: Topical application to depilated dorsal skin: hair length, dermal thickness, anagen follicles, follicle density. Format: in vivo, mouse. Particulars: for hair length distribution histogram relative to control group: day 23, topical once daily; for anagen hair cycle (anagen hair follicles by morphology) / follicle density (number of follicles per mm): topical once daily for 3 weeks. As for the experimental part: We tested compounds to determine whether their topical application could induce anagen hair cycle and follicle density. Briefly, seven-week old C57BL/6 mice were used. […] Mice were induced to enter anagen phase by being depilated in the dorsal region. Compounds ([…]) were topically applied onto the dorsal skin once daily for 3 weeks. Three mice were used for each compound group. Approximately 30 hairs from each mouse were plucked at specific days (day 16, day 19, and day 23) and the hair length was measured. Additionally, skin samples for cryosectioning were obtained from the treated dorsal region of each mouse.
All compounds were resuspended in vehicle solution (1.2 propanediol:EtOH:H20 (40:20:40)). Compound concentrations were as follows: alprostadil 40 μg/mL; kaempferol 28.6 μg/mL; pramoxine 329.8 μg/mL; MG 624 45.13 μg/mL. Also tested was Gold Bond topical anesthetic cream. Latanoprost (150 μg/mL) was used as a positive control and AKT inhibitor A443654 (100 μM) was used as a negative control.
FIG. 19 is a series of photomicrographs and graphs showing that topical application of the indicated compounds induces dermal thickness. Dorsal skin of animals topically treated with compounds described above, then isolated, cryosectioned and stained with hematoxylin and eosin. Dermal thickness was manually measured randomly through the slices. A mean of three measurements through the slice were performed and about 20-30 slices were analyzed for each mouse within each compound group.
FIG. 20 is a series of photomicrographs and graphs showing that alprostadil, kaempferol, pramoxine, or MG 624 induces anagen hair cycle and follicle density. The density is expressed as number of follicles per mm whereas the anagen hair follicles are determined by morphology.

Experiment [3] deals with xenograft neuroblastoma tumors. The experiment can be described thus: Tumor formation, xenograft neuroblastoma tumors in vivo. Particulars: FIG. 4C. On the set-up: species or system human.

For `CCCCC[C@H](O)/C=C/[C@H]1[C@H](O)CC(=O)[C@@H]1CCCCCCC(=O)O` [Alprostadil, alprostadil], the “proliferation of human SKPs” value in the experiment with human SKPs [1] is “enhanced proliferation”. The “size of human SKP spheres” value in the experiment on human SKPs [2] is reported as “increase the size of human SKP spheres”. In the experiment with Sox2-EGFP mice, the “hair length distribution histogram relative to control group” value is “shift to longer hair lengths” and the hair length entry is listed as “increase in hair length”. Moreover, in the experiment with C57BL/6 mice, the “hair length distribution histogram relative to control group” value was “shift versus longer hair length”, the “anagen hair cycle (anagen hair follicles by morphology)” value is recorded as “induces” and the “follicle density (number of follicles per mm)” value is “induces”.

As to `O=c1c(O)c(-c2ccc(O)cc2)oc2cc(O)cc(O)c12` [Kaempferol], the “proliferation of human SKPs” value with human SKPs [1] is on record as “enhanced proliferation”. In addition, in the experiment on human SKPs [2], the “size of human SKP spheres” value is reported as “increase the size of human SKP spheres”. In the experiment on Sox2-EGFP mice, the “hair length distribution histogram relative to control group” value is recorded as “shift to longer hair lengths” and the hair length result is recorded as “increase in hair length”. In addition, in the experiment with C57BL/6 mice, the “hair length distribution histogram relative to control group” value is on record as “shift versus longer hair length”, the “anagen hair cycle (anagen hair follicles by morphology)” value was “induces” and the “follicle density (number of follicles per mm)” value is reported as “induces”.

For `CC[N+](CC)(CC)CCOc1ccc(/C=C/c2ccccc2)cc1.[I-]` [MG 624], the “proliferation of human SKPs” value in the experiment on human SKPs [1] is listed as “enhanced proliferation”. The SKP proliferation entry in the experiment with human SKPs [1] (200 nM) is reported as “enhanced; also recorded: increased”. In the experiment with C57BL/6 mice, the “anagen hair cycle (anagen hair follicles by morphology)” value is “induces” and the “follicle density (number of follicles per mm)” value is reported as “induces”.

As to `CCCCOc1ccc(OCCCN2CCOCC2)cc1` [Pramoxine hydrochloride, Pramoxine], in the experiment on human SKPs [1], the “proliferation of human SKPs” value is recorded as “enhanced proliferation”. In the experiment on C57BL/6 mice, the “anagen hair cycle (anagen hair follicles by morphology)” value is given as “induces” and the “follicle density (number of follicles per mm)” value is listed as “induces”.

In the case of `CC[C@]1(O)C[C@@H]2CN(CCc3c([nH]c4ccccc34)[C@@](C(=O)OC)(c3cc4c(cc3OC)N(C)[C@H]3[C@@](O)(C(=O)OC)[C@H](OC(C)=O)[C@]5(CC)C=CCN6CC[C@]43[C@@H]65)C2)C1` [vinblastine], in experiment [3], the tumor formation entry was “inhibition of tumor formation”.
